Like-named read-outs stand apart in the source and are kept apart here.
Assays:
[1] = test system: HMLER (human breast cancer bulk cell); assay: cells
Source text: (§1) HMLER (human mammary endothelial cancer cells), HMLER-shEcad (human mammary endothelial cancer stem cells), and MCF-10A (healthy human mammary endothelial) cells were maintained in Mammary Epithelial Cell Growth Medium (MEGM) with supplements and growth factors: bovine pituitary extract (BPE), hydrocortisone, human epidermal growth factor (hEGF), insulin, and gentamicin/amphotericin-B. HEK293T (human embryonic kidney cell), and U2OS (Homo sapiens bone osteosarcoma) cells were maintained in Dulbecco's Modified Eagle's Medium (DMEM) with a final concentration of 10% fetal bovine serum. The cells were grown in T75 flask at 310 K in a humidified atmosphere containing 5% CO2.
(§2) The colourimetric MTT (3-(4,5-dimethylthiazol-2-yl)-2,5-diphenyltetrazolium bromide) assay was used to determine the toxicity of the anticancer peptides and conventional anticancer drugs. 5×10^3 cells were seeded in each well of a 96-well microplate. The cells were incubated overnight. Elevated concentrations of the compounds (0, 0.1, 0.2, 0.4, 0.8, 1.6, 3.1, 6.3, 12.5, 25, 50 and 100 μM) were added and incubated for 72 hr with a total volume 200 μL. The stock solutions of the compounds were prepared as 5 mM solutions in DMSO and diluted using media or in pure water. The final concentration of DMSO in each well was either 0.5% or 0% and this amount was present in the untreated control. After 72 hr, 20 μL of a 4 mg/mL solution of MTT in PBS was added to each well, and the plate was incubated for an additional 4 hr. The MEGM/MTT mixture was aspirated and 100 μL of DMSO was added to dissolve the resulting purple formazan crystals. The absorbance of the solutions in each well was read at 550 nm wavelength. Absorbance values were normalized to either DMSO-containing or non DMSO-containing control wells and plotted as concentration of test compound versus % cell viability. IC50 values were interpolated from the resulting dose dependent curves.
(§3) The peptides were screened against several different human cell lines and their cytotoxicity were determined. Cell lines utilised include MCF-10A (human breast epithelial cell), HMLER (human breast cancer bulk cell), HMLER-shEcad (human breast cancer stem cell), HEK293T (human embryonic kidney cell), and U2OS (human bone osteosarcoma).

[2] = test system: HMLER-shEcad (human breast cancer stem cell); assay: cells
Source text: as §1, §2, §3

[3] = test system: HEK293T (human embryonic kidney cell); assay: cells
Source text: as §1, §2, §3

[4] = test system: U2OS (human bone osteosarcoma)
Source text: as §1, §2, §3

[5] = Tryptophan fluorescent binding assay, POPC vesicles; settings: 50 μM peptide, PBS pH 7.4, lipid per peptide
Procedure: (§4) In brief, 50 μM peptides were fixed and incubated with titrated POPC vesicles (black) or 3POPC/1POPG vesicles (grey) at concentrations of 0, 12.5, 25, 50, 100, 250, 500, 1000, 2500, and 5000 μM in phosphate buffered saline (1×, pH 7.4). The lipid concentration that causes 50% peptide binding was determined using a tryptophan fluorescent binding assay and the values are shown as lipid per peptide.
(§5) The lipids 1-palmitoyl-2-oleoyl-sn-glycero-3-phosphocholine (POPC), 1-palmitoyl-2-oleoyl-snglycero-3-phospho-(1′-rac-glycerol) (POPG) were purchased from Avanti Polar Lipids and dissolved in chloroform. Large unilamellar vesicles (LUVs) were produced by extrusion through 100 nm pore filter using an extruder and filters purchased from Avanti Polar Lipids.
(§6) Peptides (50 μM) and POPC/POPG LUVs (600 μM) were prepared in 10 mM phosphate buffer (pH 7.0). The solutions were incubated and measured after 60 minutes. Excitation was fixed at 280 nm (slit 9 nm) and emission was collected from 300 to 450 nm (slit 9 nm). The spectra were recorded using a Synergy H1 Hybrid Multi-Mode Reader (FIG. 3A) and Cytation™ 5 Cell Imaging Multi-Mode Reader (FIG. 2) from BioTek and were averaged over 3 scans.
(§7) Table 3 illustrates the lipid concentration-induced 50% peptide binding onto a liposome. 50 μM peptide was fixed and incubated with titrated lipid (POPC vesicles or 3POPC/1POPG vesicles) at concentrations of 0, 12.5, 25, 50, 100, 250, 500, 1000, 2500, and 5000 μM in phosphate buffered saline (1×, pH 7.4). The lipid concentration that causes 50% peptide binding was determined using tryptophan fluorescent binding assay and the values are shown as lipid per peptide. †N-terminus is free, C-terminus: —W—NH2.

[6] = ANTS/DPX liposome leakage assay, POPC vesicles; format: biochemical; settings: 0.5 mM vesicles; for Peptide Concentration-induced 50% ANTS/DPX leakage at pH 4.8, POPC Vesicle: pH 4.8, lipid per peptide; for Peptide Concentration-induced 50% ANTS/DPX leakage at pH 7.4, POPC Vesicle: pH 7.4, lipid per peptide
Procedure: (§8) In brief, 0.5 mM POPC vesicles (grey) or POPC:POPG vesicles (ratio 3:1, black) were incubated with peptide concentrations of 0, 0.02, 0.04, 0.08, 0.16, 0.32, 0.64, 1.25, 2.5, 5, 10, and 20 μM in each A) hydrochloric acid-adjusted phosphate buffered saline (1×, pH 4.8) and B) phosphate buffered saline (1×, pH 7.4).
as §5
(§9) 5 mM ANTS (8-aminonaphthalene-1,3,6-trisulfonic acid, disodium salt) and 12.5 mM DPX (p-xylene-bis-pyridinium bromide) were entrapped in 0.1 μm diameter extruded vesicles with lipids. Gel filtration chromatography using a Sephadex G-100 (GE Healthcare Life Sciences Inc) was used to remove external free ANTS/DPX from LUVs with entrapped contents. LUVs were diluted to 0.5 mM and used to measure the leakage activity by addition of aliquots of peptides. Leakage was measured after 3 h incubation. 10% Triton was used as the positive control to measure the maximum leakage of the vesicle. Fluorescence emission spectra were recorded using excitation and emission wavelength of 350 nm and 510 nm for ANTS/DPX using a BioTek Synergy H1 Hybrid Multi-Mode Reader.
(§10) Table 4 illustrates peptide concentration-induced 50% ANTS/DPX liposome leakage. 0.5 mM POPC and 3POPC/1POPG vesicles were fixed and incubated with titrated peptide concentration ([…]) each in phosphate buffered saline (1×, pH 7.4) and hydrochloric acid-adjusted phosphate buffered saline (1×, pH 4.8). The values are shown as lipid per peptide. †N-terminus is free, C-terminus: —W—NH2.

[7] = Tryptophan fluorescent binding assay, 3POPC/1POPG vesicles; settings: 50 μM peptide, PBS pH 7.4, lipid per peptide
Procedure: as §4, §5, §6, §7

[8] = ANTS/DPX liposome leakage assay, 3POPC/1POPG vesicles; format: biochemical; settings: 0.5 mM vesicles; for Peptide Concentration-induced 50% ANTS/DPX leakage at pH 4.8, 3POPC/1POPG Vesicle: pH 4.8, lipid per peptide; for Peptide Concentration-induced 50% ANTS/DPX leakage at pH 7.4, 3POPC/1POPG Vesicle: pH 7.4, lipid per peptide
Procedure: as §8, §5, §9, §10

Structure (SMILES) | IC50 ([1]; 72 h) [µM] | IC50 ([2]; 72 h) [µM] | IC50 ([3]; 72 h) [µM] | IC50 ([4]; 72 h) [µM] | IC50 ([1]; read-out: IC50 HMLER, MTT, 72 hr) [µM] | IC50 ([2]; read-out: IC50 HMLER-shEcad, MTT, 72 hr) [µM] | IC50 ([3]; read-out: IC50 HEK293T, MTT, 72 hr) [µM] | IC50 ([4]; read-out: IC50 U20S, MTT, 72 hr) [µM] | Lipid Concentration-induced 50% Peptide Binding, POPC Vesicle [5] [L/P] | Peptide Concentration-induced 50% ANTS/DPX leakage at pH 4.8, POPC Vesicle [6] [L/P] | Peptide Concentration-induced 50% ANTS/DPX leakage at pH 7.4, POPC Vesicle [6] [L/P] | Lipid Concentration-induced 50% Peptide Binding, 3POPC/1POPG Vesicle [7] [L/P] | Peptide Concentration-induced 50% ANTS/DPX leakage at pH 4.8, 3POPC/1POPG Vesicle [8] [L/P] | Peptide Concentration-induced 50% ANTS/DPX leakage at pH 7.4, 3POPC/1POPG Vesicle [8] [L/P]
CC(C)C[C@@H](NC(=O)CN)C(=O)N[C@H](CC(C)C)C(=O)N[C@H](CC(=O)O)C(=O)N[C@H](CC(C)C)C(=O)N[C@H](CC(C)C)C(=O)N[C@H](CCC(=O)O)C(=O)N[C@H](CC(C)C)C(=O)N[C@H](CC(C)C)C(=O)N[C@H](CC(C)C)C(=O)N[C@H](CCCCN)C(=O)N[C@H](C)C(=O)N[C@H](C)C(=O)NCC(=O)N[C@H](Cc1c[nH]c2ccccc12)C(N)=O [D-form DEK] | 0.44 ± 0.1 | 0.36 | 3.28 ± 0.21 | 5.84 ± 0.04 | – | – | – | – | – | – | – | – | – | –
CC(C)C[C@@H](NC(=O)CN)C(=O)N[C@H](CC(C)C)C(=O)N[C@H](CC(=O)O)C(=O)N[C@H](CC(C)C)C(=O)N[C@H](CC(C)C)C(=O)N[C@H](Cc1c[nH]cn1)C(=O)N[C@H](CC(C)C)C(=O)N[C@H](CC(C)C)C(=O)N[C@H](CC(C)C)C(=O)N[C@H](CCCCN)C(=O)N[C@H](C)C(=O)N[C@H](C)C(=O)NCC(=O)N[C@H](Cc1c[nH]c2ccccc12)C(N)=O [D-form DHK] | – | – | – | – | 0.32 ± 0.07 | 0.23 ± 0.04 | 1.55 ± 0.37 | 1.24 ± 0.03 | – | – | – | – | – | –
CC(C)C[C@H](NC(=O)CN)C(=O)N[C@@H](CC(C)C)C(=O)N[C@@H](CC(=O)O)C(=O)N[C@@H](CC(C)C)C(=O)N[C@@H](CC(C)C)C(=O)N[C@@H](CCC(=O)O)C(=O)N[C@@H](CC(C)C)C(=O)N[C@@H](CC(C)C)C(=O)N[C@@H](CC(C)C)C(=O)N[C@@H](CCC(=O)O)C(=O)N[C@@H](C)C(=O)N[C@@H](C)C(=O)NCC(=O)N[C@@H](Cc1c[nH]c2ccccc12)C(N)=O [DEE] | 5.55 ± 0.35 | 6.05 ± 2.76 | 9.91 ± 0.44 | 61 ± 1.41 | – | – | – | – | 0.63 | 110 | 644 | 0.38 | 164 | 597
CC(C)C[C@H](NC(=O)CN)C(=O)N[C@@H](CC(C)C)C(=O)N[C@@H](CC(=O)O)C(=O)N[C@@H](CC(C)C)C(=O)N[C@@H](CC(C)C)C(=O)N[C@@H](CCC(=O)O)C(=O)N[C@@H](CC(C)C)C(=O)N[C@@H](CC(C)C)C(=O)N[C@@H](CC(C)C)C(=O)N[C@@H](Cc1c[nH]cn1)C(=O)N[C@@H](C)C(=O)N[C@@H](C)C(=O)NCC(=O)N[C@@H](Cc1c[nH]c2ccccc12)C(N)=O [DEH] | 5.35 ± 1.91 | 3.6 ± 0.42 | 10.5 ± 4.67 | 36.5 ± 3.92 | – | – | – | – | 0.75 | 63 | 620 | 1.50 | 193 | 548
CC(C)C[C@H](NC(=O)CN)C(=O)N[C@@H](CC(C)C)C(=O)N[C@@H](CC(=O)O)C(=O)N[C@@H](CC(C)C)C(=O)N[C@@H](CC(C)C)C(=O)N[C@@H](Cc1c[nH]cn1)C(=O)N[C@@H](CC(C)C)C(=O)N[C@@H](CC(C)C)C(=O)N[C@@H](CC(C)C)C(=O)N[C@@H](CCC(=O)O)C(=O)N[C@@H](C)C(=O)N[C@@H](C)C(=O)NCC(=O)N[C@@H](Cc1c[nH]c2ccccc12)C(N)=O [DHE] | 3.75 ± 0.92 | 2.8 ± 0.14 | 11.1 ± 1.91 | 17.2 ± 1.06 | – | – | – | – | 1.00 | 58 | 566 | 0.72 | 469 | 581
CC(C)C[C@H](NC(=O)CN)C(=O)N[C@@H](CC(C)C)C(=O)N[C@@H](CC(=O)O)C(=O)N[C@@H](CC(C)C)C(=O)N[C@@H](CC(C)C)C(=O)N[C@@H](Cc1c[nH]cn1)C(=O)N[C@@H](CC(C)C)C(=O)N[C@@H](CC(C)C)C(=O)N[C@@H](CC(C)C)C(=O)N[C@@H](Cc1c[nH]cn1)C(=O)N[C@@H](C)C(=O)N[C@@H](C)C(=O)NCC(=O)N[C@@H](Cc1c[nH]c2ccccc12)C(N)=O [DHH] | 21.4 ± 2.47 | 11.9 ± 0.14 | 6.4 ± 0.42 | 55.9 ± 18.9 | – | – | – | – | 0.67 | 106 | 684 | 0.28 | 98 | 692
CC(C)C[C@H](NC(=O)CN)C(=O)N[C@@H](CC(C)C)C(=O)N[C@@H](Cc1c[nH]cn1)C(=O)N[C@@H](CC(C)C)C(=O)N[C@@H](CC(C)C)C(=O)N[C@@H](CCC(=O)O)C(=O)N[C@@H](CC(C)C)C(=O)N[C@@H](CC(C)C)C(=O)N[C@@H](CC(C)C)C(=O)N[C@@H](CCCCN)C(=O)N[C@@H](C)C(=O)N[C@@H](C)C(=O)NCC(=O)N[C@@H](Cc1c[nH]c2ccccc12)C(N)=O [HEK] | 2.35 ± 1.06 | 3.45 ± 2.19 | 6.95 ± 1.63 | – | – | – | – | – | 0.44 | 97 | 755 | 0.46 | 41. | 386

From patent US20250326794A1, “ANTI-CANCER LEUCINE-RICH PEPTIDES AND USES THEREOF” (KING'S COLLEGE LONDON, priority 2019, published 2025)
